# Results reported in patent US11419902B2, “Compositions comprising bacterial strains” (4D Pharma Research Limited, priority 2018, dated 2022).
# Assays:
# PBMCs = test: Cytokine analysis of PBMCs from healthy donors (multiplex immunoassay); assay type: cell-based, human; settings: PBMC culture, 10% bacteria supernatant, 72 h
# Protocol: Frozen healthy human PBMCs were purchased from Stem Cells Technologies (Cambridge UK). Briefly cells were thaw and left to rest overnight in full growth media (RPMI 1640 with 10% FBS, 2 mM L. Glutamine, 55 μM 2-Mercapoethanol and 100 U/ml penicillin, 100 μg/ml streptomycin) in CO2 incubator at 37° C. For the experiment cells were plated at a density of 750,000 Cell/well in 48 well plates and treated in full growth media with 10% bacteria supernatants in the presence or absence of 1 ng/ml LPS. Cell culture media was added to untreated wells. Cells were left to rest for 72 h, thereafter cell free supernatants were collected and spun down for 3 minutes at 10,000 g at 4° C. Samples were stored at −80° C. for cytokine analysis.
# PBMCs were treated as described in Example 5.
# Cytokine quantification was conducted using a ProcartaPlex multiplex immunoassay following the manufacturer's recommendations (Thermo Fischer Scientific). Briefly, 50 μl of cell-free co-culture supernatants were used for cytokine quantification using a MAGPIX® MILLIPLEX® system (Merck) with the xPONENT software (Luminex, Austin, Tex., USA). Data was analysed using the MILLIPLEX® analyst software (Merck) using a 5-parameter logistic curve and background subtraction to convert mean fluorescence intensity to pg/ml values.
# splenocytes = test: Spleen cytokine assay (ex-vivo splenocyte assay); assay type: in vivo, mouse; settings: mice administered MRx0029
# Protocol: Animals were allowed to habituate to their holding room for one week after arrival into the animal unit. They receive oral gavage (200 μL dose) of live biotherapeutics at a dose of 1×10^9 CFU for 6 consecutive days between 15:00 and 17:00. On day 7, the animals are decapitated, and tissues are harvested for experimentation.
# Spleens were collected immediately in 5 mL RPMI media following sacrifice and cultured immediately. Spleen cells were first homogenised in this RPMI media, followed by 5 mins incubation with 1 ml of RBC lysis buffer (11814389001 ROCHE, Sigma). A further 10 ml of RPMI media was added, followed by 200G centrifugation for 5 mins. The supernatant was then filtered through 40 um strainer. Cells were counted and seeded (4,000,000/mL media). After 2.5 h of adaptation, cells were stimulated with lipopolysaccharide (LPS-2 μg/ml) or concanavalin A (ConA-2.5 μg/ml) for 24 h. Following stimulation, the supernatants were harvested to assess the cytokine release using Proinflammatory Panel 1 (mouse) V-PLEX Kit (Meso Scale Discovery, Maryland, USA) for TNF-α, IL-10, IL-1β, Interferon γ, CXCL2 and IL6. The analyses were performed using MESO QuickPlex SQ 120, SECTOR Imager 2400, SECTOR Imager 6000, SECTOR S 600.
# The ex-vivo splenocyte assay involves challenging the splenocytes (cells isolated from the spleen—a main organ involved in immune defence), with a bacterio- or viral-mimetic challenge.
# IL-8 = IL-8 secretion in U373 cells treated with SCFAs or supernatant fractions (ELISA); assay type: cell-based, Human; settings: U373 cells, with or without 1 μg/ml LPS, 24 h
# Protocol: Human glioblastoma astrocytoma cell line (U373), were maintained in 25 ml MEME 4.5 g/L D-glucose supplemented with 10% heat-inactivated FBS, 4 mM L-Glutamine, 100 U/ml penicillin, 100 μg/ml streptomycin and 5 μg/ml plasmocin, 1% Non-Essential Amino Acids, 1% Sodium Pyruvate (referred to as full growth media).
# U373 cells were prepared as described above. Cells were pre-treated for 1 h with 1 μg/ml LPS indicated above and incubated at 37° C. and 5% CO2. After 1 h pre-incubation, cells were removed from CO2 incubator and treated with increasing concentration of fresh prepared Sodium Butyrate (SB), Sodium Valerate (SV) and Hexanoic Acid (HA).
# U373 cells were prepared as described above. Cells were pre-treated for 1 h with 1 μg/ml LPS as indicated above. Afterwards, cells were removed from CO2 incubator and treated with 100 μl of the different fractions. Fractions from media were used as controls. Cell-free supernatants were collected 24 h after treatment and analysed by ELISA for IL-8 secretion (as outlined above).
# HDAC = HDAC inhibition on HT-29 cell lysate; assay type: biochemical
# Protocol: Pure cultures of bacteria were grown anaerobically in YCFA+ broth until they reached their stationary growth phase. Cultures were centrifuged at 5,000×g for 5 minutes and the cell-free supernatant (CFS) was filtered using a […] (Millipore, UK). 1 mL aliquots of the CFS were stored at −80° C. until use. Sodium butyrate, hexanoic and valeric acid were obtained from Sigma Aldrich (UK) and suspensions were prepared in YCFA+ broth.
# To investigate which metabolites were responsible for the strain-induced HDAC inhibition, different concentrations of hexanoic acid, valeric acid and sodium butyrate were measured for their HDAC inhibition on whole HT-29 cells and on HT-29 cell lysate.
# [1] = system: Occludin, Villin, TJP1 and TJP2; test: Tight junction protein gene expression in HT29-mtx cells (qRT-PCR); assay type: cell-based; settings: 2 h incubation
# Source text: The ability of MRx0029 to cause any intestinal barrier dysfunction was investigated. HT29-mtx epithelial, mucin-producing cell monolayers were used as an in vitro model to evaluate gut barrier disruption and immune stimulation following treatment with MRx0029.
# Total RNA was extracted using the RNeasy mini kit (Qiagen, Manchester, JUK) according to the manufacturer's instructions, and the RNA concentration determined by absorbance at 260/280 nm using a spectrophotometer (nano-Drop ND-1000; Thermo Scientific, Wilmington, Del.). For mRNA expression analysis, cDNA was prepared from total RNA using the High-Capacity cDNA reverse transcription kit (Applied Biosystems, UK) according to the manufacturer's instructions. The reverse transcription reactions were performed in a Thermo cycler (Biometra, Germany) at 25° C. for 10 min, 37° C. for 120 min, and 85° C. for 5 min, hold on at 4° C. Resulting cDNA was amplified in duplicates by the SYBR-Green PCR assay, and products were detected on QuantStudio 6 flex real-time PCR machine (Applied Biosystems, UK) using a standardised profile (initial denaturation of 95° C. for 10 minutes, followed by 40 cycles of 15 seconds of denaturation at 95° C. and 60 seconds of annealing/extension at 60/65° C., depending on the primers. A dissociation stage was added after the 40 cycles to generate a melting curve. Analysis was performed using the Applied Biosystems QuantStudio Real-Time PCR Software v1.2.
# RNA was isolated and Quantitative RT-PCR (qRT-PCR) analysis was performed to characterize the changes in gene expression of tight junction proteins during incubation with MRx0029. The administration of MRx0029 enhanced Occludin, Villin, Tight Junction Protein 1 and 2 (respectively TJP1 and TJP2) mRNA expression after 2 h incubation (FIG. 14B).
substance,measurement,setting,value
Megasphaera massiliensis MRx0029,expression of IL-1β,PBMCs,increased the expression
same,expression of IL-6,PBMCs,increased the expression
same,expression of IL-10,PBMCs,increased the expression
same,expression of IL-23,PBMCs,increased the expression
same,expression of MIP-3α,PBMCs,increased the expression
same,expression of TNF-α,PBMCs,increased the expression
same,interferon-γ production from splenocytes,splenocytes; following a challenge with LPS,reduction
same,interleukin-1β production from splenocytes,splenocytes; following a challenge with LPS,reduction
same,interleukin-6 production from splenocytes,splenocytes; following a challenge with LPS,reduction
same,levels of the chemoattractant CXCL1 from splenocytes,splenocytes,increase in the levels of the chemoattractant CXCL1
same,IL-8 secretion in the presence and absence of LPS,IL-8,induced IL-8 secretion
same,HDAC inhibition on HT-29 cell lysate,HDAC,strong HDAC inhibition
same,Occludin mRNA expression,[1],enhanced
same,TJP1 mRNA expression,[1],enhanced
same,TJP2 mRNA expression,[1],enhanced
same,Villin mRNA expression,[1],enhanced
